# Data taken from patent US10456405B2, “Nitric oxide-releasing prodrug molecule of substituted quinazolines” (ZHEJIANG HUAHAI PHARMACEUTICAL CO., LTD, priority 2015, dated 2019).
# Read-outs that look alike come from different tables or passages of the source.
# Experiments:
# apoE−/− mice = test: apoE−/− mouse atherosclerosis model, high-fat diet 10 weeks; assay type: in vivo; details: for Aorta eNOS / ApoA1 / Heart eNOS / Serum NO / Serum eNOS: blank administration group = 100, 150 mg/kg twice a day, 10 weeks; for HDL-C / LDL-C / TC: serum, high-fat diet 10 weeks, intragastric 150 mg/kg twice a day
# Text: Experimental method: 36 eight-week-old male apoE-/- mice were selected and randomly divided into a blank administration group, an […] administration group, an […] administration group, an […] administration group, an […] administration group, and an […] administration group, 6 mice per group. The mice in each group were fed with high-fat diet for 10 weeks. At the beginning of the high-fat feeding, the mice in each group were administrated. Each tested compound was intragastric administered at the dose of 150 mg/kg twice a day. The blank administration group was given corresponding dose of saline. […] After the blood was taken, the serum, heart, and aorta were isolated. The levels of total cholesterol (TC), high density lipoprotein cholesterol (HDL-C), and low density lipoprotein cholesterol (LDL-C) in the serum of the mice in each group were measured by automatic biochemical analyzer. The ApoA1 expression level was detected with an ApoA1 kit. The content of NO in the serum of the mice was determined with a total NO test kit (Beyotime). The NOS activities of the heart, aorta, and serum were determined with an NOS test kit (Beyotime). The content of eNOS was calculated by the difference between the measured values determined before and after adding eNOS inhibitor L-NAME (Beyotime).
# C57BL/6 mice = test: Serum NO level in C57 mice after oral gavage; assay type: in vivo; details: oral gavage 150 mg/kg (positive drug 5 mg/kg), FIG. 1
# Text: Experimental method: 60 eight-week-old C57BL/6 mice (level: SPF; gender: male; source: Shanghai SLAC Laboratory Animal Co., Ltd.) were selected. […] were selected as the blank control. 12 mice were used as the positive drug control (isosorbide mononitrate). 12 mice were used as […] administration group. The other 32 mice were randomly divided into 4 groups, 8 mice per group, which are […] administration group, […] administration group, […] administration group, and […] administration group, respectively. The tested compounds of the positive drug control group and each administration group were dissolved in DMSO and then PEG400 was added thereto. The mixture was shaken and mixed thoroughly. At last, 10% of HP-β-CD was added. The mixture was shaken and mixed thoroughly. The ratio of each solvent was DMSO: PEG400:10% of HP-β-CD=5:67.5:27.5. The administration groups were administered by oral gavage at the dose of 150 mg/kg. The positive drug control group was administered at the dose of 5 mg/kg. The mice in each group were sacrificed by inhaling excess CO2 at 10 min, 30 min, 60 min, 120 min, 180 min, and 240 min after administration. The blood was collected into a 1.5 mL centrifuge tube, standing at room temperature for more than 30 min, and then centrifuged (3000 rpm, 10 min). The supernatant serum was aspirated, and stored at -80° C. for testing. After the blood was collected, the heart was cut with the thoracic aorta. Three parts of the heart were weighed and placed into cryovials, rapidly frozen in liquid nitrogen, and cryopreserved at -80° C. for testing. The aorta and aortic arch were weighed, rapidly frozen in liquid nitrogen, and cryopreserved at -80° C. for testing. The content of NO in the serum of C57BL/6 mice was determined by using the total NO test kit (Beyotime).
# [1] = rat, in vivo
# Protocol: Experimental method: Intravenous injection solutions (the administration concentrations of the tested compounds were 1 mg/kg) and oral gastric perfusates (the administration concentrations of the test compounds were 5 mg/kg) of the test compounds were prepared, and intravenously and orally administered to three SD rats, respectively. The concentrations of the whole blood for H130 at 0.083 h, 0.25 h, 0.5 h, 1 h, 2 h, 4 h, 8 h, and 24 h after administration were determined by LC-MS/MS, respectively. The pharmacokinetic parameters were compared by a drug-time curve. Sample pretreatment: 150 μL of the whole blood to be tested was aspirated accurately. 600 μL of internal standard solution (diluted to 0.5 μg/mL with methanol) was added, sufficiently mixed by a vortex mixer, and centrifuged at 13000 r/min for 20 min at 4° C. 3 μL of the supernatant was taken into a sample vial.
# Chromatographic conditions: C18 reversed-phase chromatographic column; gradient elution with mobile phase A: water/acetonitrile (v:v=95:5) with 0.025% of formic acid and 1 mM of ammonium acetate added thereto, and mobile phase B: acetonitrile/water (v:v=95:5) with 0.025% of formic acid and 1 mM of ammonium acetate added thereto.
# [2] = Release of nitric oxide in vitro (Griess reagent, nitrite); details: 10^−4 mol/L tested substance, phosphate buffer pH 7.4, cysteine 5 mmol/L, 37° C., 1 h; as nitrite
# In short: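 Compounds at final 10^−4 mol/L in pH 7.4 phosphate buffer with 5 mmol/L cysteine, incubated at 37 °C. At 1 h, nitrite measured with Griess reagent (A540) against a nitrite standard curve; NO release expressed as nitrite.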
release of prototype compound H130 after administration [1],"AUCRatio (Dosage Calibration) ([1]; iv, 1 mg/kg) [%]","AUCRatio (Dosage Calibration) ([1]; po, 5 mg/kg) [%]","AUCRatio (Dosage Calibration) ([1]; SD, iv, 1 mg/kg) [%]","AUCRatio (Dosage Calibration) ([1]; SD, po, 5 mg/kg) [%]",Molecule,Aorta eNOS (apoE−/− mice) [%],ApoA1 (apoE−/− mice) [%],Heart eNOS (apoE−/− mice) [%],Serum NO (apoE−/− mice) [%],Serum eNOS (apoE−/− mice) [%],HDL-C (apoE−/− mice) [mg/dL],LDL-C (apoE−/− mice) [mg/dL],TC (apoE−/− mice) [mg/dL],"time after administration at which serum NO level rose to its maximum, then decreased (C57BL/6 mice) [h]",Amount of Released No [2] [µM]
can be rapidly released,55.6,0.84,–,–,"COc1cc(OC)c2c(=O)[nH]c(-c3cc(C)c(OCCOC(=O)OC4COC5C(O[N+](=O)[O-])COC45)c(C)c3)nc2c1 (stereo not drawn) [Compound H119, 2-[4-(5,7-dimethoxy-4-oxo-3,4-dihydro-quinazolin-2-yl)-2,6-dimethyl-phenoxy]-ethyl (6-nitroxy-hexahydrofuro[3,2-b]furan-3-yl)-carbonate]",124,114,138,127,126,88 ± 14,308 ± 35,994 ± 85,1,1.24
can be rapidly released,–,–,37.7,42.4,"COc1cc(OC)c2c(=O)[nH]c(-c3cc(C)c(OCCO[N+](=O)[O-])c(C)c3)nc2c1 [Compound H101, 2-(4-(2-nitrooxy-ethoxy)-3,5-dimethylphenyl)-5,7-dimethoxyquinazolin-4(3H)-one]",132,126,135,126,128,78 ± 9,273 ± 38,985 ± 68,2,5.97
can be rapidly released,54.9,41.8,–,–,"2-[4-(5,7-dimethoxy-4-oxo-3,4-dihydro-quinazolin-2-yl)-2,6-dimethyl-phenoxy]-ethyl 4-(2-oxo-3-nitroxymethyl-1,2,5-oxadiazol-3-methyl)oxy-4-oxo-butyrate [Compound H111]",127,118,145,134,132,83 ± 13,296 ± 29,1021 ± 57,1,52.12
